Drawing on US11084818B2 (HEPO PHARMACEUTICAL CO., LTD., priority 2016, dated 2021), this text covers EC50 for 19 molecules.

One experiment addresses T1, hTLR8 (Homo sapiens, UniProt Q9NR97).
T1 construct: host or cells: HEK-Blue hTLR8 (HEK293-derived reporter line)
T1 sequence (Q9NR97 27-1041): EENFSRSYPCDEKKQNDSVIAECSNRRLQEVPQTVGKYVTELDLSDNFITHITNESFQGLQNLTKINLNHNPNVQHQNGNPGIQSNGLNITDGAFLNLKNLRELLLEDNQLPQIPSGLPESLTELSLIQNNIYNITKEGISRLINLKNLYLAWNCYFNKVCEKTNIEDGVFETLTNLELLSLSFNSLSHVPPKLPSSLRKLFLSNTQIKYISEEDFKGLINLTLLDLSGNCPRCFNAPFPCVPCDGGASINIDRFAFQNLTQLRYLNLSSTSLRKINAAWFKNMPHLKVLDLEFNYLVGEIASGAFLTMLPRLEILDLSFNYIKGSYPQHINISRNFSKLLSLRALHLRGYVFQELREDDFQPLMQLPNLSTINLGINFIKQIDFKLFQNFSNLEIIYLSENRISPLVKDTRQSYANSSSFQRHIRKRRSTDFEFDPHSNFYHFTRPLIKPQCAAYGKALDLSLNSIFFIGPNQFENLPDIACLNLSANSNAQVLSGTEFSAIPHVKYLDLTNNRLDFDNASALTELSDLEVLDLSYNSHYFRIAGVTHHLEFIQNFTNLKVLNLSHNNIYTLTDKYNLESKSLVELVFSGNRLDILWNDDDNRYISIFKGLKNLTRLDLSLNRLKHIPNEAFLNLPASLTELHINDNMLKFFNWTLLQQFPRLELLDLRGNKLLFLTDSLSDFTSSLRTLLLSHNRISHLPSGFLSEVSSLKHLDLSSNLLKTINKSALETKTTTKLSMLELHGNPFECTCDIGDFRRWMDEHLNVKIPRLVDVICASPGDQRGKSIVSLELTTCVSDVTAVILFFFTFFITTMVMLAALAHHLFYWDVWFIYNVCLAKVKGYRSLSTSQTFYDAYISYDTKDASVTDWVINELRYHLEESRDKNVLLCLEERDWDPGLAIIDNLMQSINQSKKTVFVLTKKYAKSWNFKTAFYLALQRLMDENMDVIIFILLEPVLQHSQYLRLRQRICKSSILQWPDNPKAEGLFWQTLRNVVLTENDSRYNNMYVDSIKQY
Briefly: Activation activity test of hTLR8 (HEK-Blue hTLR8 cells, QUANTI-Blue OD650). Format: cell-based. Conditions: HEK-Blue hTLR8 cells, 24 hours incubation; read-out: TLR8 (EC50). The method, then: (§1) Effect Example 1: Activation Activity Test of hTLR7 and hTLR8
(§2) Cell lines: HEK-Blue™ hTLR7 and HEK-Blue™ hTLR8 (InvivoGen Co.)
(§3) Primary reagents: QUANTI-Blue™ (InvivoGen) and ATPlite 1 Step (PerkinElmer)
(§4) Primary instruments: Automatic Liquid Handling Workstation (Labcyte, Model: Echo), Cell Counter (Countstar, IC1000) and Multifunctional Enzyme Marker (Molecular Device, Flexstation III).
(§5) 2.1 The tested compounds were formulated into a 60 mM concentrated stock solution in DMSO and stored in a nitrogen cabinet.
(§6) 2.3 The T150 cultured cells were taken out from the CO2 incubator and the cell culture supernatant was discarded. The cells were washed with PBS once, followed by addition of about 10 mL of the culture solution. The cells were dissociated by patting the cell culture flask, and gently blown to even by a pipette.
(§7) The cells were counted, and the cell suspension was adjusted to 200,000 cells/mL by the culture solution. Thereafter, 200 μL of diluted cells was added to each well in a 96-well plate containing the compound (40,000 cells/well).
(§8) 2.4 The compounds and cells were incubated in a 5% CO2 incubator at 37° C. for 24 hours.
(§9) 2.5 Compound activity assay: 20 μl of the cell supernatant of each well after induction was added to a cell culture plate containing 180 μL of reagent QUANTI-Blue™, and incubated at 37° C. for 1.5 hours. Thereafter, the optical density absorption (OD650) of each well at 650 nm was measured using a Multifunctional Enzyme Marker: Flexstation III.
(§10) 2.6 Compound Activity: OD650 values were analyzed using GraphPad Prism software and the dose-response curves for the compound were fitted to calculate the EC50 values of the compound.

In another experiment the target is T2, hTLR7 (Homo sapiens, UniProt Q9NYK1).
T2 construct: host or cells: HEK-Blue hTLR7 (HEK293-derived reporter line)
T2 sequence (Q9NYK1 27-1049): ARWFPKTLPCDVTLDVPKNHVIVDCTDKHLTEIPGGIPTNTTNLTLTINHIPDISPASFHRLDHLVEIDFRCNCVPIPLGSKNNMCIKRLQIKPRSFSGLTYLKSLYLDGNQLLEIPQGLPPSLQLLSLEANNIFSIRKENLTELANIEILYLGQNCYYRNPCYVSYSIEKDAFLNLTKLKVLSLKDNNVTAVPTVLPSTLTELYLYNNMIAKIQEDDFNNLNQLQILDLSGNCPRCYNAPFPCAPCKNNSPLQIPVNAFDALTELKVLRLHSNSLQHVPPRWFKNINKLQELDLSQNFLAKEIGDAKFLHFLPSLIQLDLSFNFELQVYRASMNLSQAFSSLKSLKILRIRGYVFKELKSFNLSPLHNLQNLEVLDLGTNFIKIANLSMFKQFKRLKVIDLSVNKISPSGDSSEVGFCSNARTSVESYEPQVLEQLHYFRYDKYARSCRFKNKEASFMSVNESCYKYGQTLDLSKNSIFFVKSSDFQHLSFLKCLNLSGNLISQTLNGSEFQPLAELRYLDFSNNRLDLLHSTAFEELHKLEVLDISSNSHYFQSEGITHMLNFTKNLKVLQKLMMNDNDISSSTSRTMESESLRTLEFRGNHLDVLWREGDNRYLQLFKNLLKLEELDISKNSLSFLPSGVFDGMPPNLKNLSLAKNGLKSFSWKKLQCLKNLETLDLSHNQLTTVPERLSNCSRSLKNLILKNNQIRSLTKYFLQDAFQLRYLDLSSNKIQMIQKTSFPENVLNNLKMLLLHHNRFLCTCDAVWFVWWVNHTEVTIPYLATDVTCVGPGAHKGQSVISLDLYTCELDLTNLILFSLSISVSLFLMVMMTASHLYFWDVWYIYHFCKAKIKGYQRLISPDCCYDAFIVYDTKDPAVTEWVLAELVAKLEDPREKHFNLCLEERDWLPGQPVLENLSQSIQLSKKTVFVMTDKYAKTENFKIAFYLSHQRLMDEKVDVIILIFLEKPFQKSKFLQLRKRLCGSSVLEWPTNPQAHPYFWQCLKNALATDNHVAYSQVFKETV
Briefly: Activation activity test of hTLR7 (HEK-Blue hTLR7 cells, QUANTI-Blue OD650). It counts as cell-based. The following applies: 24 hours incubation, read-out: TLR7 (EC50). The method, then:
as §1, §2, §3, §4, §5, §6, §7, §8, §9, §10

One may read the EC50 as the midpoint of the concentration-response curve. Take `COCCOc1ncc2[nH]c(=O)n(Cc3cccc(CN4CCCCCC4)c3)c2n1` [Example 21, 2-(2-methoxyethoxy)-9-(3-(azepan-1-ylmethyl)benzyl)-7,9-dihydro-8H-purin-8-one]: the concentration giving a half-maximal response (EC50) at hTLR8 was greater than 100 µM; on hTLR7, 10 to 100 µM.

Consider `COCCOc1ncc2[nH]c(=O)n(Cc3cccc(CN4CC[C@@H](F)C4)c3)c2n1` [Example 22, (R)-9-(3-((3-fluoropyrrolidin-1-yl)methyl)benzyl)-2-(2-methoxyethoxy)-7,9-dihydro-8H-purin-8-one], for which the values for the 50% effective concentration (EC50) at hTLR8 and at hTLR7 were greater than 100 µM and 10 to 100 µM, respectively.

On to `COCCOc1ncc2[nH]c(=O)n(Cc3cccc(CN4CCC[C@@H]4C(=O)OC)c3)c2n1` [Example 23, methyl (3-((2-(2-methoxyethoxy)-8-oxo-7,8-dihydro-9H-purin-9-yl)methyl)benzyl)-D-pyrrolidine-2-carboxylate], for which the EC50 on hTLR8 is greater than 100 µM; at hTLR7, 10 to 100 µM.

For the molecule `COCCOc1ncc2[nH]c(=O)n(Cc3cccc(CN4CCC[C@H]4C(=O)OC)c3)c2n1` [Example 24, methyl (3-((2-(2-methoxyethoxy)-8-oxo-7,8-dihydro-9H-purin-9-yl)methyl)benzyl)-L-pyrrolidine-2-carboxylate], the EC50 on hTLR8 and at hTLR7 was greater than 100 µM each time.

Regarding `COCCOc1ncc2[nH]c(=O)n(Cc3cccc(CN4CCN(C)CC4)c3)c2n1` [Example 25, 2-(2-methoxyethoxy)-9-(3-((4-methylpiperazin-1-yl)methyl)benzyl)-7,9-dihydro-8H-purin-8-one], the EC50 on hTLR8 is greater than 100 µM; at hTLR7, 10 to 100 µM.

For `COCCOc1ncc2[nH]c(=O)n(Cc3cccc(C(C)N4CCCC4)c3)c2n1` (centres unmarked) [Example 26, 2-(2-methoxyethoxy)-9-(3-(1-(pyrrolidin-1-yl)ethyl)benzyl)-7,9-dihydro-8H-purin-8-one], the EC50 on hTLR8 is greater than 100 µM; at hTLR7, 10 to 100 µM.

As to `CCCCOc1ncc2[nH]c(=O)n(Cc3cccc(CN4CCCC4)c3)c2n1` [Example 27, 2-butoxy-9-(3-(pyrrolidin-1-ylmethyl)benzyl)-7,9-dihydro-8H-purin-8-one], the EC50 was 10 to 100 µM at hTLR8 and greater than 100 µM on hTLR7.

Regarding `O=c1[nH]c2cnc(OCC3CCOCC3)nc2n1Cc1cccc(CN2CCCC2)c1` [Example 28, 9-(3-(pyrrolidin-1-ylmethyl)benzyl)-2-((tetrahydro-2H-pyran-4-yl)methoxy)-7,9-dihydro-8H-purin-8-one], the EC50 at hTLR8 and on hTLR7 was greater than 100 µM in each case.

Consider `O=c1[nH]c2cnc(OCCC3CC3)nc2n1Cc1cccc(CN2CCCC2)c1` [Example 29, 2-(2-cyclopropylethoxy)-9-(3-(pyrrolidin-1-ylmethyl)benzyl)-7,9-dihydro-8H-purin-8-one], for which the concentration giving a half-maximal response (EC50) at hTLR8 and at hTLR7 was greater than 100 µM throughout.

In the case of `COCCOCCOc1ncc2[nH]c(=O)n(Cc3cccc(CN4CCCC4)c3)c2n1` [Example 30, 2-(2-(2-methoxyethoxy)ethoxy)-9-(3-(pyrrolidin-1-ylmethyl)benzyl)-7,9-dihydro-8H-purin-8-one], the EC50 at hTLR8 and at hTLR7 was greater than 100 µM each time.

On to `CCCCNc1ncc2[nH]c(=O)n(Cc3cccc(CN4CCCC4)c3)c2n1` [Example 31, 2-(butylamino)-9-(3-(pyrrolidin-1-ylmethyl)benzyl)-7,9-dihydro-8H-purin-8-one], for which the half-maximal effective concentration (EC50) at hTLR8 and at hTLR7 was greater than 100 µM throughout.

With `COCCNc1ncc2[nH]c(=O)n(Cc3cccc(CN4CCCC4)c3)c2n1` [Example 32, 2-((2-methoxyethyl)amine)-9-(3-(pyrrolidin-1-ylmethyl)benzyl)-7,9-dihydro-8H-purin-8-one], the half-maximal effective concentration (EC50) at hTLR8 and at hTLR7 was greater than 100 µM throughout.

For `CCCCSc1ncc2[nH]c(=O)n(Cc3cccc(CN4CCCC4)c3)c2n1` [Example 33, 2-butylthio-9-(3-(pyrrolidin-1-ylmethyl)benzyl)-7,9-dihydro-8H-purin-8-one], the EC50 at hTLR8 and at hTLR7 was greater than 100 µM each time.

With `CCCC[S+]([O-])c1ncc2[nH]c(=O)n(Cc3cccc(CN4CCCC4)c3)c2n1` (centres unmarked) [Example 34, 2-butylsulfinyl-9-(3-(pyrrolidin-1-ylmethyl)benzyl)-7,9-dihydro-8H-purin-8-one], the EC50 on hTLR8 and on hTLR7 was greater than 100 µM in each case.

For the molecule `CCCCS(=O)(=O)c1ncc2[nH]c(=O)n(Cc3cccc(CN4CCCC4)c3)c2n1` [Example 35, 2-butylsulfonyl-9-(3-(pyrrolidin-1-ylmethyl)benzyl)-7,9-dihydro-8H-purin-8-one], the EC50 on hTLR8 and on hTLR7 was greater than 100 µM each time.

On to `COCCOc1ncc2[nH]c(=O)n(C(C)c3ccc(CN4CCCC4)cc3)c2n1` (centres unmarked) [Example 36], for which the EC50 on hTLR8 was greater than 100 µM; at hTLR7, 10 to 100 µM.

For the molecule `CCOCCOc1ncc2[nH]c(=O)n(Cc3ccc(CN4CCCC4)cc3)c2n1` [Example 37, 2-(2-ethoxyethoxy)-9-(4-(pyrrolidin-1-ylmethyl)benzyl)-7,9-dihydro-8H-purin-8-one], the EC50 was greater than 100 µM on hTLR8 and 1 to 10 µM on hTLR7.

In the case of `O=c1[nH]c2cnc(OCCO)nc2n1Cc1ccc(CN2CCCC2)cc1` [Example 38, 2-(2-hydroxyethoxy)-9-(4-(pyrrolidin-1-ylmethyl)benzyl)-7,9-dihydro-8H-purin-8-one], the half-maximal effective concentration (EC50) at hTLR8 was greater than 100 µM; at hTLR7, 10 to 100 µM.

`COCCOc1cc2c(cn1)[nH]c(=O)n2Cc1ccc(CN2CCCC2)cc1` [Example 39, 6-(2-methoxyethoxy)-1-(4-(pyrrolidin-1-ylmethyl)benzyl)-1,3-dihydro-2H-imidazole-[4,5-c]pyridin-2-one]: the figures for the EC50 on hTLR8 and on hTLR7 were greater than 100 µM and 10 to 100 µM, respectively.
